ChEMBL document CHEMBL4610121, “Rapid Elaboration of Fragments into Leads by X-ray Crystallographic Screening of Parallel Chemical Libraries (REFiLX)” (J Med Chem, 2020)
Converted amounts (≈) assume the structure as drawn.

Legend:
[1] = Solubility in PH 7.4 buffer by 1D 1H qNMR analysis; format: physicochemical
[2] = molecular target: T1, Thiol:disulfide interchange protein DsbA (Escherichia coli (strain K12), UniProt P0AEG4); assay: Binding affinity to uniformly labeled 15N oxidized Escherichia coli DsbA by 1H-15N HSQC NMR spectroscopy
T1 sequence (P0AEG4 whole entry): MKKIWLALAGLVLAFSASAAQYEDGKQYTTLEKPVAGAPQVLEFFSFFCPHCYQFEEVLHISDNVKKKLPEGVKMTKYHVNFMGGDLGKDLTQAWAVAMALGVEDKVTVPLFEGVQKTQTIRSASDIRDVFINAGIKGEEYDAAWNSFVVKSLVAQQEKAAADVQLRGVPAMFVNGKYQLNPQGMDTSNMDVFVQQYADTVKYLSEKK

SMILES | solubility [1] [µM] | Kd [2] [µM]
Cc1cc(Oc2ccc(CC(=O)N3CCN(C)C(=O)C3)cc2)ccc1C#N | 1000 (≈ 363 µg/mL) | 480
Cc1cc(Oc2ccc(CC(=O)O)cc2)ccc1C#N | 1000 (≈ 267 µg/mL) | –
CCN(CCn1cccn1)C(=O)Cc1ccc(Oc2ccc(C#N)c(C)c2)cc1 | 250 (≈ 97.1 µg/mL) | 62
CC(=O)N1CCN(C(=O)Cc2ccc(Oc3ccc(C#N)c(C)c3)cc2)CC1 | 1000 (≈ 377 µg/mL) | 430
Cc1nc(CCN(C)C(=O)Cc2ccc(Oc3ccc(C#N)c(C)c3)cc2)no1 | 500 (≈ 195 µg/mL) | 230
N#Cc1ccc(Oc2ccc(O)cc2)cc1 | – | > 1000
Cc1cc(Oc2ccc(CC(=O)N3CCOCC3)cc2)ccc1C#N | 500 (≈ 168 µg/mL) | 365
Cc1cc(Oc2ccc(CC(=O)NCCN3CCCN(C)CC3)cc2)ccc1C#N | 1000 (≈ 407 µg/mL) | 1100
Cc1cc(Oc2ccc(CC(=O)N3CCOCC3C(=O)O)cc2)ccc1C#N (racemic) | 1000 (≈ 380 µg/mL) | 290
